Test results as given in patent publication US20050282743A1, “Molecular interactions in cells” (Arbor Vita Corporation, priority 2001, published 2005).
Ends that are not written are not given here. Peptide text beside a SMILES is read from it. * marks the point of attachment. Biotin = O=C1N[C@H]2[C@H](CS[C@H]2CCCCC(=O)*)N1

Assays:
Assay in all cases: G' assay (10 uM PL peptide), results of TABLE 7 and TABLE 12
Assay type in all cases: binding
[1] = molecular target: T1, PDZ protein (GST-PDZ fusion) (Homo sapiens, UniProt Q13424); settings: PDZ Synt. 1 alpha, PDZ Domain 1
T1 construct: made in house; host or cells: E. coli (DH5alpha, BL21 or JM109)
T1 sequence (Q13424 1-505): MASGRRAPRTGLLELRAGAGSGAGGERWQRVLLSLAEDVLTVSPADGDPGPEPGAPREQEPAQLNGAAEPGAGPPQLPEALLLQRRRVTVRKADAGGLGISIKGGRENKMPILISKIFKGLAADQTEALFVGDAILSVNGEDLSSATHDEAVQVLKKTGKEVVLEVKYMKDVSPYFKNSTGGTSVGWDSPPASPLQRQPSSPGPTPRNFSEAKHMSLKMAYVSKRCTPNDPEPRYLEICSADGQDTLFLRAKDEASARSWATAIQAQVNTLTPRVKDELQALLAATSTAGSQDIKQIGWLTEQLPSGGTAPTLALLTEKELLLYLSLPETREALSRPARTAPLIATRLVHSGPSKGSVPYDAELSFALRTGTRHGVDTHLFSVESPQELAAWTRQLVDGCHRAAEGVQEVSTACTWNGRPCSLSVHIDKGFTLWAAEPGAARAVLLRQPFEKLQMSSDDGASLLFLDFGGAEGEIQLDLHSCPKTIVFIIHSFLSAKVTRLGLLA
Method in brief: (§1)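 Biotin-PL peptide (N-term label), 10 uM vs GST-PDZ; protein 5 ug/ml by default. A450 nm binned: 1 = 0-1, 2 = 1-2, 3 = 2-3, 4 = 3-4, 5 = >4 on >2 repeats, 0 = no binding.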

[2] = molecular target: T2, PDZ protein (GST-PDZ fusion) (Homo sapiens, UniProt Q9NY99); settings: PDZ Syntrophin gamma-2, PDZ Domain 1
T2 construct: made in house; host or cells: E. coli (DH5alpha, BL21 or JM109)
T2 sequence (Q9NY99 1-539): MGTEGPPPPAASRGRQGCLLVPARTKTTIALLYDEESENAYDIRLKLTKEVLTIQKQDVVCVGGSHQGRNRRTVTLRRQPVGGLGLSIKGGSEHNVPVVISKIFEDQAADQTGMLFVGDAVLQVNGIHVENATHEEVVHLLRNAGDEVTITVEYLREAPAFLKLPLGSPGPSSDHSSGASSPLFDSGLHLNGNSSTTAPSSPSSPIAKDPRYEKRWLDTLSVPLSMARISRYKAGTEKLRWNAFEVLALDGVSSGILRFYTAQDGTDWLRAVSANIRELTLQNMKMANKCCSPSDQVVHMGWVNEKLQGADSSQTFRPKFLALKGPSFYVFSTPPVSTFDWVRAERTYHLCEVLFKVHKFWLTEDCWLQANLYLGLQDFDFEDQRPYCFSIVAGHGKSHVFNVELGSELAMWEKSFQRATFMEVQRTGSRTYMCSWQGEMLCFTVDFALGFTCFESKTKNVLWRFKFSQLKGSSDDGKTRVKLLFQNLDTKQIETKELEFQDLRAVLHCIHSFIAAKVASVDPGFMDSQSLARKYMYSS
Method in brief: as §1

[3] = molecular target: T3, PDZ protein (GST-PDZ fusion) (Homo sapiens, UniProt Q9NSN8); settings: PDZ Syntrophin gamma-1, PDZ Domain 1
T3 construct: made in house; host or cells: E. coli (DH5alpha, BL21 or JM109)
T3 sequence (Q9NSN8 1-517): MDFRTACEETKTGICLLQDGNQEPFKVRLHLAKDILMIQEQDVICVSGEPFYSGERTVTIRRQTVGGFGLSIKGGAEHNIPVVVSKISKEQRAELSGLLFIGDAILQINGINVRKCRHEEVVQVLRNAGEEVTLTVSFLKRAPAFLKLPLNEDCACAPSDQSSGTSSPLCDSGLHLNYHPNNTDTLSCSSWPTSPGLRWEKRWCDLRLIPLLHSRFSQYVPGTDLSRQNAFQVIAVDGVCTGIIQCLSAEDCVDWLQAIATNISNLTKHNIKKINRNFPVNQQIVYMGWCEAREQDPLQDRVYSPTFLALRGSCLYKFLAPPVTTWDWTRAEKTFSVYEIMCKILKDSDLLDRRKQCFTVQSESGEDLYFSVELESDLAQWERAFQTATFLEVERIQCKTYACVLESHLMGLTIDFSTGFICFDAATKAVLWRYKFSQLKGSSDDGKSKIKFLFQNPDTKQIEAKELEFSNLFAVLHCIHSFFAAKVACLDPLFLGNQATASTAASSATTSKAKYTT
Method in brief: as §1

[4] = molecular target: T4, PDZ protein (GST-PDZ fusion) (Homo sapiens, UniProt Q9Y2H9); settings: PDZ KIAA0973, PDZ Domain 1
T4 construct: made in house; host or cells: E. coli (DH5alpha, BL21 or JM109)
Method in brief: as §1

[5] = molecular target: T5, PDZ protein (GST-PDZ fusion) (Homo sapiens, UniProt Q07157); settings: PDZ ZO-1, PDZ Domain 1
T5 construct: made in house; host or cells: E. coli (DH5alpha, BL21 or JM109)
Method in brief: as §1

[6] = molecular target: T6, PDZ protein (GST-PDZ fusion) (Homo sapiens, UniProt Q8TEW0); settings: PDZ PAR3, PDZ Domain 3
T6 construct: made in house; host or cells: E. coli (DH5alpha, BL21 or JM109)
Method in brief: as §1

T4 sequence (Q9Y2H9 whole entry, the tested form may be a part): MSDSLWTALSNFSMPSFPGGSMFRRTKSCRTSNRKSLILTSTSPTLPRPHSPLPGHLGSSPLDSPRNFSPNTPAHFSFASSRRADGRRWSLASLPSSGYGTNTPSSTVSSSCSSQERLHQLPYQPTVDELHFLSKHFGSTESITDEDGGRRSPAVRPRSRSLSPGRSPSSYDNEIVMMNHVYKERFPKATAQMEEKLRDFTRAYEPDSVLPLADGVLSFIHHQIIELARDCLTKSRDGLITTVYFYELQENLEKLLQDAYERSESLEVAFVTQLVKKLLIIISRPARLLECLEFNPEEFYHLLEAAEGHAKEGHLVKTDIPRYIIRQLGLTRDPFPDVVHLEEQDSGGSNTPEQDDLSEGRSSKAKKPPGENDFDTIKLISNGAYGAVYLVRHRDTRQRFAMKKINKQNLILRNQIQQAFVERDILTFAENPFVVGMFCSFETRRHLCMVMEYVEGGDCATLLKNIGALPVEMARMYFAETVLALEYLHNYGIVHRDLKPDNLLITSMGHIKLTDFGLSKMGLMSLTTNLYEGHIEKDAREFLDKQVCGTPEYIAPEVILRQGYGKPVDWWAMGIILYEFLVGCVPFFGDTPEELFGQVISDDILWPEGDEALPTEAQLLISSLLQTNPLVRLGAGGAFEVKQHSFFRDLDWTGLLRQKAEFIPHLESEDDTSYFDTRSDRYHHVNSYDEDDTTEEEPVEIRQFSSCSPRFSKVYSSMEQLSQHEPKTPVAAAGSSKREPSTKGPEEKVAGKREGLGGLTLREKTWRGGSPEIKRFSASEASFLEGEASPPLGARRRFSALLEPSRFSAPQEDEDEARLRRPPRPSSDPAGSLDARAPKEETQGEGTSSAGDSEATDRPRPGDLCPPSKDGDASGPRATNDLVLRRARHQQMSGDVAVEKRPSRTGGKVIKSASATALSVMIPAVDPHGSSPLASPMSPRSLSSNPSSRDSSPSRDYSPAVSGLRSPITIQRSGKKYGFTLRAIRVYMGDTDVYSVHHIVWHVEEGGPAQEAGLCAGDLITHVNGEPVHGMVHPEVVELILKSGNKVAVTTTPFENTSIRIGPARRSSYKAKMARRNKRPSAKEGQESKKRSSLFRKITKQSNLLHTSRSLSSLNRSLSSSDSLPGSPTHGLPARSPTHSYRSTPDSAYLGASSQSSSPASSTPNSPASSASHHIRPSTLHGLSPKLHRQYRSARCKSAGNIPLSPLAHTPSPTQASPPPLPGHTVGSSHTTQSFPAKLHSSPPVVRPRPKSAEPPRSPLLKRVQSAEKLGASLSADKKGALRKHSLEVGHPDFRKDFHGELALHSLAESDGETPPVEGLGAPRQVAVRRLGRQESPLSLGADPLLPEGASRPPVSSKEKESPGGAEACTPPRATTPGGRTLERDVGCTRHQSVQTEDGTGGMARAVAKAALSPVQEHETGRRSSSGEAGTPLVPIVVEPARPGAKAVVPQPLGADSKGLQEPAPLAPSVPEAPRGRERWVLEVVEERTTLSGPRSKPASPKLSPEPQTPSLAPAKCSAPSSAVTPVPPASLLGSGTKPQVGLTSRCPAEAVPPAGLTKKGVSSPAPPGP
T5 sequence (Q07157 whole entry, the tested form may be a part): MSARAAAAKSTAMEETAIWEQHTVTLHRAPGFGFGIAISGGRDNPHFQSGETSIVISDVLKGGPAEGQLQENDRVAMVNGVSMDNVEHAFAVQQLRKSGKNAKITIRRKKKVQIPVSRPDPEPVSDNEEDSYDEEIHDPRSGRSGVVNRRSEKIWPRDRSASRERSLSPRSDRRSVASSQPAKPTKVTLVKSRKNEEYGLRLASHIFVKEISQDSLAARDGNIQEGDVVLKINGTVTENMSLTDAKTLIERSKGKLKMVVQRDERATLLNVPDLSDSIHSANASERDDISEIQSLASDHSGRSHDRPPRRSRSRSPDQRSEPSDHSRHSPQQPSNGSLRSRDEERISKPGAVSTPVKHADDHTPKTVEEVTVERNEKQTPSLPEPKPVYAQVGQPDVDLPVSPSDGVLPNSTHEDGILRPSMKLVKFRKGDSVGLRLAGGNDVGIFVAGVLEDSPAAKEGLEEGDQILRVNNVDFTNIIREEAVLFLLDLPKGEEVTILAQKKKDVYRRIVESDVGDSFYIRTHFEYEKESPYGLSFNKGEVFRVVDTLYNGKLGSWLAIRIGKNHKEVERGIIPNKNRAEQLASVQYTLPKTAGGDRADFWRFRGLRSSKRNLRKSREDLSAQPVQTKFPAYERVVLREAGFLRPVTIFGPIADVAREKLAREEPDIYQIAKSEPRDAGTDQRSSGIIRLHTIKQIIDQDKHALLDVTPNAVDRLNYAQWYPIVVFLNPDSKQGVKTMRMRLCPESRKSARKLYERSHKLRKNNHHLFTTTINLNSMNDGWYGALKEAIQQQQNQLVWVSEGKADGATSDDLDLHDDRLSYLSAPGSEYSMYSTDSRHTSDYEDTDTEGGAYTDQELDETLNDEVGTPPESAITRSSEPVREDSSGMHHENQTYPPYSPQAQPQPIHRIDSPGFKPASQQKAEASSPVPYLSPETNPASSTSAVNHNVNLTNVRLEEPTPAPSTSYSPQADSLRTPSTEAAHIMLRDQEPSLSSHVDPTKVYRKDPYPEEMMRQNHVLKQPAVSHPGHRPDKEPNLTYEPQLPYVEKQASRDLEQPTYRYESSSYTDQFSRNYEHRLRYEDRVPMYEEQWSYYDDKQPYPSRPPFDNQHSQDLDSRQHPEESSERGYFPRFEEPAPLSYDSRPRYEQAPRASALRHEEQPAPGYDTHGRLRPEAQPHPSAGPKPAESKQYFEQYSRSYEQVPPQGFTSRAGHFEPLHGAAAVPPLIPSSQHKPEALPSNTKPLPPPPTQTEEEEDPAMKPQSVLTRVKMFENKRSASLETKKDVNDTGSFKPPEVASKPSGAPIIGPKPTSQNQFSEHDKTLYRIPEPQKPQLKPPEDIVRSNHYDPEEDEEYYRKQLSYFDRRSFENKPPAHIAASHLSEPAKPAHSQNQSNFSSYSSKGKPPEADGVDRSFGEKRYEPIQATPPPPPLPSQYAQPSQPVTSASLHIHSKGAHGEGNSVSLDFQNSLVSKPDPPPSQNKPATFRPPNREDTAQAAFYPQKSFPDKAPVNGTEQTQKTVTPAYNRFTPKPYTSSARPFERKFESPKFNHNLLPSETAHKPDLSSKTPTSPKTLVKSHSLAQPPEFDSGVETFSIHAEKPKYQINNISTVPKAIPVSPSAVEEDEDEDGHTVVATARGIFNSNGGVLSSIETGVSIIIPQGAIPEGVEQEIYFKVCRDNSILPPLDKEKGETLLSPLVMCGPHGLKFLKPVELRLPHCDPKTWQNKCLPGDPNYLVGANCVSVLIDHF
T6 sequence (Q8TEW0 whole entry, the tested form may be a part): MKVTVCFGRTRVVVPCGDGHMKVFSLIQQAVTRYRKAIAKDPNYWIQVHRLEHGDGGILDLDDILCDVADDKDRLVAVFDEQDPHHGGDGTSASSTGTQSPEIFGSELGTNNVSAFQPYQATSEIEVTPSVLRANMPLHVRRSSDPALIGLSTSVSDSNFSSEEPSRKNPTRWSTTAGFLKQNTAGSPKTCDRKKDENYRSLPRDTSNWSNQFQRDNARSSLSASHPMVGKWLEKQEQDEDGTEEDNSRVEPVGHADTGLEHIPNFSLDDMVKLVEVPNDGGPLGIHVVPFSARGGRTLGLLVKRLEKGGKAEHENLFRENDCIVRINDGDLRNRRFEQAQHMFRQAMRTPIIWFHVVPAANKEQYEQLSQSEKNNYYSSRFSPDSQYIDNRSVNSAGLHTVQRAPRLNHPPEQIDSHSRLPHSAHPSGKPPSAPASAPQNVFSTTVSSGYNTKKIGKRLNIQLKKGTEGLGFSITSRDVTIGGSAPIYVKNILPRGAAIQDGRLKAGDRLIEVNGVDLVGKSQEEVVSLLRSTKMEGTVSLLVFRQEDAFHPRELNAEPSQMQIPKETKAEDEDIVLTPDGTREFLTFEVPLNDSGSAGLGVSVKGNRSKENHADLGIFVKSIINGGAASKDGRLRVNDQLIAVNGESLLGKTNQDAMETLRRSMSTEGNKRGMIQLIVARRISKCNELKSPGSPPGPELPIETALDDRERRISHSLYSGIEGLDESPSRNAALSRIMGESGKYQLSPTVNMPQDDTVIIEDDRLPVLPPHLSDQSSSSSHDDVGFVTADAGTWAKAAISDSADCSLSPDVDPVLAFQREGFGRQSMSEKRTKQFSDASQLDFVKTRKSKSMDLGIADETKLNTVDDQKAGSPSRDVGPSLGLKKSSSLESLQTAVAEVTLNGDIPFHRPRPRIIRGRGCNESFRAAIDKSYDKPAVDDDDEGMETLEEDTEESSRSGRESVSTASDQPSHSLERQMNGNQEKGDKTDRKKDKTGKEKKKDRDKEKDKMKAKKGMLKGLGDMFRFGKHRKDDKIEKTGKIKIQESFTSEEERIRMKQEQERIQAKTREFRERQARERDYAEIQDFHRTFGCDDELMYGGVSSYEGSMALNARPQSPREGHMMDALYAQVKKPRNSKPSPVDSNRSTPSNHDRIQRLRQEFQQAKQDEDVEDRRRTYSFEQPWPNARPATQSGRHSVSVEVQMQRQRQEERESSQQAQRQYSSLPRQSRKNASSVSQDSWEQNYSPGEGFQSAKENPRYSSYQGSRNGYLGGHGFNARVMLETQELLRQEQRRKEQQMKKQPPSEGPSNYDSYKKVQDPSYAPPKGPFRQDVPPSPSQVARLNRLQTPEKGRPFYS

Classification [4]	Classification [6]	Compound	Classification [1]	Classification [2]	Classification [3]	Classification [5]
1 (A450 nm 0-1)	–	TQGFPGPATWRRISSLESEV	4 (A450 nm 3-4)	2 (A450 nm 1-2)	4 (A450 nm 3-4)	–
2 (A450 nm 1-2)	1 (A450 nm 0-1)	CC(C)C[C@H](NC(=O)[C@H](CC(=O)O)NC(=O)[C@H](CO)NC(=O)[C@H](CCC(=O)O)NC(=O)CNC(=O)[C@H](Cc1ccc(O)cc1)NC(=O)[C@H](CC(C)C)NC(=O)[C@H](C)NC(=O)[C@H](CO)NC(=O)[C@H](CO)NC(=O)[C@H](Cc1ccccc1)NC(=O)[C@H](C)NC(=O)[C@H](C)NC(=O)[C@H](Cc1ccc(O)cc1)NC(=O)[C@H](CC(=O)O)NC(=O)[C@H](CC(C)C)NC(=O)[C@H](C)NC(=O)CNC(=O)[C@@H]1CCCN1C(=O)[C@@H](NC(=O)CCCC[C@@H]1SC[C@@H]2NC(=O)N[C@@H]21)C(C)C)C(=O)O [a-actinin 2] (Biotin-VPGALDYAAFSSALYGESDL-OH; C-terminus assumed)	3 (A450 nm 2-3)	1 (A450 nm 0-1)	1 (A450 nm 0-1)	–
2 (A450 nm 1-2)	–	PPATPSPRLALPAHHNATRL (Biotin-PPATPSPRLALPAHHNATRL) [Na+/Pi cotransporter 2]	–	1 (A450 nm 0-1)	–	–

Continued, compound first:

Compound	Classification [4]	Classification [6]	Classification [1]	Classification [2]	Classification [3]	Classification [5]
CC(C)C[C@H](NC(=O)[C@H](C)NC(=O)[C@H](CO)NC(=O)CNC(=O)[C@@H](NC(=O)CCCC[C@@H]1SC[C@@H]2NC(=O)N[C@@H]21)[C@@H](C)O)C(=O)N[C@@H](CCC(N)=O)C(=O)N[C@@H](C)C(=O)N[C@@H](Cc1c[nH]c2ccccc12)C(=O)N[C@@H](CCCNC(=N)N)C(=O)N[C@@H](Cc1c[nH]cn1)C(=O)N[C@H](C(=O)N[C@@H](CO)C(=O)N[C@@H](CCCNC(=N)N)C(=O)N[C@@H](CCC(N)=O)C(=O)N[C@@H](C)C(=O)N[C@H](C(=O)N[C@@H](CCC(=O)O)C(=O)N[C@@H](CO)C(=O)N[C@H](C(=O)N[C@H](C(=O)O)C(C)C)[C@@H](C)O)[C@@H](C)O)[C@@H](C)O [HPV E6 #66 (modified)] (Biotin-TGSALQAWRHTSRQATESTV-OH; C-terminus assumed)	–	–	2 (A450 nm 1-2)	1 (A450 nm 0-1)	1 (A450 nm 0-1)	–
CSCC[C@H](NC(=O)[C@H](C)NC(=O)[C@H](CCCNC(=N)N)NC(=O)CNC(=O)[C@@H](NC(=O)[C@H](Cc1c[nH]c2ccccc12)NC(=O)[C@H](CCCNC(=N)N)NC(=O)CNC(=O)CCCC[C@@H]1SC[C@@H]2NC(=O)N[C@@H]21)[C@@H](C)O)C(=O)N[C@@H](CO)C(=O)N[C@@H](C)C(=O)N[C@@H](Cc1c[nH]c2ccccc12)C(=O)N[C@@H](CCCCN)C(=O)N1CCC[C@H]1C(=O)N[C@H](C(=O)N[C@@H](CCCNC(=N)N)C(=O)N[C@@H](CCCNC(=N)N)C(=O)N[C@@H](CCC(=O)O)C(=O)N[C@H](C(=O)N[C@@H](CCC(=O)O)C(=O)N[C@H](C(=O)O)C(C)C)[C@@H](C)O)[C@@H](C)O [HPV E6 #35 (modified)] (Biotin-GRWTGRAMSAWKPTRRETEV-OH; C-terminus assumed)	2 (A450 nm 1-2)	–	5 (A450 nm of 4 more than 2× repeated)	3 (A450 nm 2-3)	4 (A450 nm 3-4)	1 (A450 nm 0-1)
CC(C)C[C@H](NC(=O)[C@H](CCCNC(=N)N)NC(=O)CNC(=O)CNC(=O)[C@H](CCCNC(=N)N)NC(=O)[C@H](C)NC(=O)[C@@H]1CCCN1C(=O)[C@H](CCCNC(=N)N)NC(=O)CNC(=O)CNC(=O)[C@@H](NC(=O)[C@H](C)NC(=O)CCCC[C@@H]1SC[C@@H]2NC(=O)N[C@@H]21)C(C)C)C(=O)N[C@@H](CCC(N)=O)C(=O)NCC(=O)N[C@@H](CCCNC(=N)N)C(=O)N[C@@H](CCCNC(=N)N)C(=O)N[C@@H](CCC(N)=O)C(=O)N[C@H](C(=O)N[C@@H](CCC(N)=O)C(=O)N[C@H](C(=O)O)C(C)C)[C@@H](C)O [HPV E6 58 (modified)] (Biotin-AVGGRPARGGRLQGRRQTQV-OH; C-terminus assumed)	2 (A450 nm 1-2)	–	2 (A450 nm 1-2)	–	–	–
CC[C@H](C)[C@H](NC(=O)[C@H](Cc1c[nH]cn1)NC(=O)[C@H](C)NC(=O)[C@H](C)NC(=O)[C@H](CO)NC(=O)[C@@H]1CCCN1C(=O)[C@H](CCCNC(=N)N)NC(=O)[C@H](CC(=O)O)NC(=O)[C@H](CCCCN)NC(=O)[C@@H]1CCCN1C(=O)[C@H](CC(=O)O)NC(=O)[C@H](CCC(=O)O)NC(=O)CCCC[C@@H]1SC[C@@H]2NC(=O)N[C@@H]21)C(=O)N[C@H](C(=O)N[C@@H](CCC(=O)O)C(=O)N[C@@H](C)C(=O)N[C@@H](CC(C)C)C(=O)N[C@@H](CCC(=O)O)C(=O)N[C@H](C(=O)N[C@@H](CC(=O)O)C(=O)N[C@H](C(=O)O)C(C)C)[C@@H](C)O)C(C)C [PDZ-binding kinase (PBK)] (Biotin-EDPKDRPSAAHIVEALETDV-OH; C-terminus assumed)	–	–	1 (A450 nm 0-1)	–	1 (A450 nm 0-1)	–
CC(C)C[C@H](NC(=O)[C@H](C)NC(=O)[C@@H](NC(=O)[C@H](CCC(=O)O)NC(=O)[C@H](CCCNC(=N)N)NC(=O)[C@H](CCCNC(=N)N)NC(=O)CNC(=O)[C@H](CCC(N)=O)NC(=O)[C@H](CC(C)C)NC(=O)[C@H](CCCNC(=N)N)NC(=O)CNC(=O)CNC(=O)[C@H](CCCNC(=N)N)NC(=O)[C@H](C)NC(=O)[C@H](CO)NC(=O)[C@H](CCCNC(=N)N)NC(=O)CNC(=O)CNC(=O)[C@H](C)NC(=O)[C@H](C)NC(=O)CCCC[C@@H]1SC[C@@H]2NC(=O)N[C@@H]21)[C@@H](C)O)C(=O)O [HPV E6 33 (modified)] (Biotin-AAGGRSARGGRLQGRRETAL-OH; C-terminus assumed)	–	–	3 (A450 nm 2-3)	1 (A450 nm 0-1)	–	–
CC[C@H](C)[C@H](NC(=O)[C@H](CCC(N)=O)NC(=O)CCCC[C@@H]1SC[C@@H]2NC(=O)N[C@@H]21)C(=O)N[C@@H](CO)C(=O)N1CCC[C@H]1C(=O)NCC(=O)NCC(=O)N[C@@H](CC(C)C)C(=O)N[C@@H](CCC(=O)O)C(=O)N1CCC[C@H]1C(=O)N1CCC[C@H]1C(=O)N[C@@H](CO)C(=O)N[C@@H](CCC(=O)O)C(=O)N[C@@H](CCCCN)C(=O)N[C@@H](Cc1c[nH]cn1)C(=O)N[C@@H](Cc1ccccc1)C(=O)N[C@@H](CCCNC(=N)N)C(=O)N[C@@H](CCC(=O)O)C(=O)N[C@H](C(=O)N[C@@H](CCC(=O)O)C(=O)N[C@H](C(=O)O)C(C)C)[C@@H](C)O [Tax]	–	–	–	1 (A450 nm 0-1)	5 (A450 nm of 4 more than 2× repeated)	–
ARHRVTSYTSSSVNVSSNL (Biotin-ARHRVTSYTSSSVNVSSNL) [IL-8RB]	–	–	1 (A450 nm 0-1)	–	–	–
